Results: patent US9386787B2, “Preparations for oral consumption” (Symrise AG, priority 2012, dated 2016)
Marks after values point to notes of the source that are not given here.

Experiment: multiple time-intensity profiling (mTIP) of astringency, trained panel
Type: in vivo
Details: 750 mg/kg EGCG + 125 mg/kg ascorbic acid; for Reduction (%) of astringency: 300 μg/kg Frescolat ML vs without; for Astringency with Frescolat ML: 300 μg/kg Frescolat ML
Procedure: In order to evaluate different attributes of a sample simultaneously over a particular period of time, the method of so-called “multiple time-intensity profiling” (mITP) was used. This descriptive method combines the advantages of the “dual-attribute time-intensity” (DATI) method, in which the intensities of two descriptors can be plotted on a two-dimensional plane, and the “time-intensity profiling” (TIP) method, in which more than two descriptors are evaluated in succession over time. In each mTIP test, trained panellists (n=15) are asked to take 2 mouthfuls (each 5 ml) of the sample to be evaluated, to wet the entire oral cavity therewith, and then to spit the sample out again. […] A parallel evaluation of more than two attributes is thus possible. The intensities are read after the first 10 seconds and then every 20 seconds over a period of 70 seconds. The data produced are analysed by means of Compusense® five and represented graphically as a time-intensity curve. In order to show the astringency-masking effect of L-lactic acid L-menthyl ester (Frescolat ML), the panel was trained inter alia with an aqueous test solution comprising 750 mg/kg of epigallocatechin gallate and 125 mg/kg of ascorbic acid. The panellists were asked to evaluate the test solution in respect of its bitterness and astringency using the above-described method. In a subsequent test, the two descriptors were evaluated on the one hand for the above-described test solution and on the other hand for the test solution plus 300 μg/kg of Frescolat ML. The results of both time-intensity curves were evaluated statistically and compared with one another in order to determine an astringency-masking effect of Frescolat® ML. For the significance calculation, the Student t-test, duplicated with paired random samples, was used.

In the case of CC(C)[C@@H]1CC[C@@H](C)C[C@H]1OC(=O)[C@H](C)O [Frescolat ML, L-lactic acid L-menthyl ester], the “Reduction (%) of astringency” value (time 0 sec) was −0.49%, the “Reduction (%) of astringency” value (time 10 sec) was −14.29% and the “Reduction (%) of astringency” value (time 30 sec, significant (p < 0.1)) was −20.58* %. For the same molecule, the “Reduction (%) of astringency” value (time 50 sec, significant (p < 0.1)) was −22.24* %, the “Reduction (%) of astringency” value (time 70 sec) was −17.82% and the “Astringency with Frescolat ML” value (time 0 sec) was 4.81. For the same molecule, the “Astringency with Frescolat ML” value (time 10 sec) was 4.11, the “Astringency with Frescolat ML” value (time 30 sec) was 3.38 and the “Astringency with Frescolat ML” value (time 50 sec) was 2.58. For the same molecule, the “Astringency with Frescolat ML” value (time 70 sec) was 2.04.
